Results as given in patent US20100160356A1, “NOVEL CYCLOBUTYL COMPOUNDS AS KINASE INHIBITORS” (priority 2006, published 2010).
In brackets after ≈: the same amount, converted by molar mass.

Experiments:
IGF1R = IGF1R (Homo sapiens, UniProt P08069); test: Inhibition of IGF1R (flashplate assay); format: biochemical; details: flashplate method
In short: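 IGF1R kinase incubated 1 hr at room temperature with ^33P-ATP and biotinylated poly(Glu,Tyr)4:1 ± test compound; stopped with EDTA, wells washed after 30 min. Bound radioactivity counted by scintillation; IC50 calculated.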

IGF1 receptor (IGF1R) = target: T1, IGF1 receptor (IGF1R) (Homo sapiens, UniProt P08069); test: Inhibition of IGF1R (ELISA assay), IGF1-stimulated autophosphorylation in cells; format: cell-based; details: human tumour cells stimulated with IGF1, read-out: IC50 IGF (ELISA)
T1 construct: endogenous in cells; host or cells: MCF-7 or Calu-6
In short: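 Cells were preincubated 45 min with increasing compound concentrations, then stimulated 5 min with IGF1. Phospho-IGF1R in lysates was captured by a receptor-specific antibody and detected with anti-phosphotyrosine antibody via chemiluminescence ELISA or fluorescent LUMINEX read-out.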

VEGF-2 = VEGF-2 (Homo sapiens, UniProt P35968); test: Inhibition of VEGF-2 (flashplate assay); format: biochemical; details: flashplate method
In short: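 Kinase incubated 3 hr at room temperature with ^33P-ATP and biotinylated poly(Glu, Tyr)4:1, with or without test substance. Stopped with EDTA, wells washed after 30 min; incorporated radioactivity counted by scintillation and IC50 calculated.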

PDGFRβ = PDGFRβ (Homo sapiens, UniProt P09619); test: Inhibition of PDGFRβ (flashplate assay); format: biochemical; details: flashplate method
In short: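 Autophosphorylation of PDGFRβ kinase with ^33P-ATP, ± test compound, 3 hr at room temperature in flashplates. Stopped with EDTA, washed, and bound radioactivity counted by scintillation. IC50 calculated from the counts.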

[1] = Solubility in phosphate buffer by the shake flask method; format: physicochemical; details: pH 7.0, 37° C., 24 h shake flask; for solubility at 24 h: 37 °C, pH 7, aqueous buffer, thermodynamic from solid
Description: The procedure described in Glomme et al. (J. Pharm. Sci. 94(1): 1-16, 2005) is followed. The concentration determination is carried out by HPLC with UV detection against a standard solution.
Buffer: 3.954 g of sodium dihydrogenphosphate monohydrate 6.024 g of sodium chloride +950 ml of ultrapure water. Setting of pH 7.0 using 0.1 M NaOH or 0.1 M HCl.
The samples were shaken at 37° C. and 450 rpm for 24 h. After about 7 h, the pH of the samples was checked and adjusted if necessary. It was checked whether the sample was still present in excess. Just before the end of the 24 h shaking time, the samples were again checked for pH and a precipitate.
• Ultrapure water plant: MilliQ gradient, Millipore, unit: F3PN37462D • Shaker: TiMix control, Bühler • Incubation hood: TH 15, Bühler • pH meter: 766 Calimatic Knick instrument: pH 1 • pH electrode: InLab 423 Mettler • HPLC: column: LiChroCart 125-4 LiChrospher 100 RP-18 • flow rate: 1.000 ml/min • eluents: • eluent A: 2 ml of diethylamine, for synthesis+1000 ml of methanol, LiChrosolv • eluent B: 5 g of ammonium acetate, for analysis+5 ml of methanol, LiChrosolv+995 ml of ultrapure water

Chain of VEGF-2 (P35968 20-1356): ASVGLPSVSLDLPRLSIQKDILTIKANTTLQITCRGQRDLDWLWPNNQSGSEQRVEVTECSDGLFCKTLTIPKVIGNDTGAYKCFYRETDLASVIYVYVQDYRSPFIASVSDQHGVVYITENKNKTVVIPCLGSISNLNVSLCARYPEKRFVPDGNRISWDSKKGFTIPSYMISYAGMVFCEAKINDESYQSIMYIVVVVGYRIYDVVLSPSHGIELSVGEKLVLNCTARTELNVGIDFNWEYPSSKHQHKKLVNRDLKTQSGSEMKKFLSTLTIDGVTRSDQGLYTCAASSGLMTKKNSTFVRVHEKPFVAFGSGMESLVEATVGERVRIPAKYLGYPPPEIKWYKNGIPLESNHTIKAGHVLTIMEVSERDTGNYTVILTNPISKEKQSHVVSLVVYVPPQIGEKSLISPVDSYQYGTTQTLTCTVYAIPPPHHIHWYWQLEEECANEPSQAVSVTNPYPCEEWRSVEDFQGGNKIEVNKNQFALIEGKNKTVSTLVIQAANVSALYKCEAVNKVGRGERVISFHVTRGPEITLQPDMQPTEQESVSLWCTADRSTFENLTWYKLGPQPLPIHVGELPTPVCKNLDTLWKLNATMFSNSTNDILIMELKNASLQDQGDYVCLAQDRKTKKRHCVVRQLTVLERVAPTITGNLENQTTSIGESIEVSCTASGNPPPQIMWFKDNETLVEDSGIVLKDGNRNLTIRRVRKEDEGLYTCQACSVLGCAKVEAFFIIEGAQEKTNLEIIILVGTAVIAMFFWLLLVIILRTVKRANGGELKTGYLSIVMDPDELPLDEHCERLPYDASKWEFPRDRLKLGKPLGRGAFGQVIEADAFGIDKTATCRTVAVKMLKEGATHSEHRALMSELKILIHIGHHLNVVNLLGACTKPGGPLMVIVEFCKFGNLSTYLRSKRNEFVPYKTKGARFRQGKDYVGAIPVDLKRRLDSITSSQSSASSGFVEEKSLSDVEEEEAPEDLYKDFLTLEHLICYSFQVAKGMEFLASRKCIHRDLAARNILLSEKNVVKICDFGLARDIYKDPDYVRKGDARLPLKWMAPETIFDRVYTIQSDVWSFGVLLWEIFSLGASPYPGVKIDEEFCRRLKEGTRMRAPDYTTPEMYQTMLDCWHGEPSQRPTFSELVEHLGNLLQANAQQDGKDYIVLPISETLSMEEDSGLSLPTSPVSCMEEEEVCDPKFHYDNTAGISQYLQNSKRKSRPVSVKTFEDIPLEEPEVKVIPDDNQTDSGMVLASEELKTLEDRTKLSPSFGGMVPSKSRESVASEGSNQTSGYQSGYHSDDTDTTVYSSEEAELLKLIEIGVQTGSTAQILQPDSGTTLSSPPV
Chain of PDGFRβ (P09619 33-1106, species assumed): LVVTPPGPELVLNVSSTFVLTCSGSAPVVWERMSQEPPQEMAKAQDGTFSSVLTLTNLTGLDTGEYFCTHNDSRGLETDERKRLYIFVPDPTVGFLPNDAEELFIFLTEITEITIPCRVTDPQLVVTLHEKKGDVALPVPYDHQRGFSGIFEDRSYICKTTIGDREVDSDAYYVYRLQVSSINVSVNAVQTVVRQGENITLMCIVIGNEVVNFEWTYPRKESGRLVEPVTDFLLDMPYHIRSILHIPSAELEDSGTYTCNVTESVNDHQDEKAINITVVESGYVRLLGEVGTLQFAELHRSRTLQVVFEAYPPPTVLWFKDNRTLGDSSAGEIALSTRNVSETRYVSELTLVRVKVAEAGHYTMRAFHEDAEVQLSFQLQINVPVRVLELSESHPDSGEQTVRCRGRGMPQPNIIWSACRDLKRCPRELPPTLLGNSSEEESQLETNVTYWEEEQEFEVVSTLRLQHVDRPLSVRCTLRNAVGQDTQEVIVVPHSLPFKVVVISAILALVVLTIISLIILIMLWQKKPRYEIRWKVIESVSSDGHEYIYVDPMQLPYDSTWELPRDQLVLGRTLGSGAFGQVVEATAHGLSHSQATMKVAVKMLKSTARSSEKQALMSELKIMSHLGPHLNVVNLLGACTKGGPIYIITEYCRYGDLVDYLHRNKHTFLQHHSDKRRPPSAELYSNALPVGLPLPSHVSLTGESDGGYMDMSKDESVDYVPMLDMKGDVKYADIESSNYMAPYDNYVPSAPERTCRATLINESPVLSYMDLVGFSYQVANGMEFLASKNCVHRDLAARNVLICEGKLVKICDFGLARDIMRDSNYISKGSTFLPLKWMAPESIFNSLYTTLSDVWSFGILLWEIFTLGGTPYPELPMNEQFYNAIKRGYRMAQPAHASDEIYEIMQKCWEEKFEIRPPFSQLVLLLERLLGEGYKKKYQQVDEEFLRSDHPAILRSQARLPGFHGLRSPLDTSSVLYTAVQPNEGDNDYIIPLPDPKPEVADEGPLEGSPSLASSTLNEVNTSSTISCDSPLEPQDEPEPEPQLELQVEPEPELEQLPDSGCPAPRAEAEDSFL
T1 sequence (P08069 31-1367): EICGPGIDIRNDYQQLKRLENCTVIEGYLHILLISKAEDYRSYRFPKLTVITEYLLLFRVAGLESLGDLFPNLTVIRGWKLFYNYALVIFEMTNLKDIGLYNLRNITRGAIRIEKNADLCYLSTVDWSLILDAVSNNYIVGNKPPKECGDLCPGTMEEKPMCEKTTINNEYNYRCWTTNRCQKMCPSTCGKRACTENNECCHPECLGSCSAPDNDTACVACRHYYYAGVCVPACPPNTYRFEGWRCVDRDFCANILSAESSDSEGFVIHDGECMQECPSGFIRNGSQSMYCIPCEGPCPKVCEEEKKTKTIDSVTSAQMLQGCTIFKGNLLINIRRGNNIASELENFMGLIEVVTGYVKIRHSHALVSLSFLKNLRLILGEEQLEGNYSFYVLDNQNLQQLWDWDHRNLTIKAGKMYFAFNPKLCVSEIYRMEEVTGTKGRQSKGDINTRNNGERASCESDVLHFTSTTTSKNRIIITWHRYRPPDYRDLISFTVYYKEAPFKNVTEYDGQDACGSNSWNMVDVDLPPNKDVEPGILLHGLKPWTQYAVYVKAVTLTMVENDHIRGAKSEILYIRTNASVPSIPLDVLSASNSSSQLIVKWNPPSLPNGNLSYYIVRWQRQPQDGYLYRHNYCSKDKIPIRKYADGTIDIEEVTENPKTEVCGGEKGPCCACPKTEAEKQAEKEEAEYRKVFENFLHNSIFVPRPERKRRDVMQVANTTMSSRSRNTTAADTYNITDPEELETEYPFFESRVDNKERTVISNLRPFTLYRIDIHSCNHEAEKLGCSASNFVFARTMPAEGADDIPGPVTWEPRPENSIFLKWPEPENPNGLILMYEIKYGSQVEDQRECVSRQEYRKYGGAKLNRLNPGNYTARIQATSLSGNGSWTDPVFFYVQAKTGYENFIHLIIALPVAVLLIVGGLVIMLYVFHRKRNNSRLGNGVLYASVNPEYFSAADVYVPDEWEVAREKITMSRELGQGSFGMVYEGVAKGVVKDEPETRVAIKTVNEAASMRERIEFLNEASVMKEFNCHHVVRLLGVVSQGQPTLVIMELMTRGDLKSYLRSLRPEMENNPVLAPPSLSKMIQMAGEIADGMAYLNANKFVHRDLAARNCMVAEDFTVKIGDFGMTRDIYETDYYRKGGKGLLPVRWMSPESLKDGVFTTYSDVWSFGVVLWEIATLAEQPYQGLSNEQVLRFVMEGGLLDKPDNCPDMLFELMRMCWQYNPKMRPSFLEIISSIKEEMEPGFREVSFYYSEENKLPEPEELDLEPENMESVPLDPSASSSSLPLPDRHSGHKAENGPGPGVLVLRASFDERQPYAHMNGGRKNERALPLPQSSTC
Chain of IGF1R (P08069 31-1367, species assumed): as the sequence (P08069 31-1367) above

IC50 (IGF1R) | IC50 (IGF1 receptor (IGF1R)) | IC50 (VEGF-2) | IC50 (PDGFRβ) | solubility at 24 h [1] | Solubility [1] | Solubility ([1]; listed as 3-[4-Amino-7-(3-pyrrolidin-1-ylmethylcyclobutyl)-7H-pyrrolo[2,3-d]pyrimidin-5-yl) | SMILES
60 nM | 2400 nM | 180 nM | 97 nM | 1070 µg/mL (≈ 2.95 mM) |  |  | Nc1ncnc2c1c(-c1cccc(O)c1)cn2C1CC(CN2CCCC2)C1 (centres unmarked) [Compound 1, 3-[4-amino-7-(3-pyrrolidin-1-ylmethylcyclobutyl)-7H-pyrrolo[2,3-d]pyrimidin-5-yl]phenol]
110 nM | 5900 nM | 195 nM | 120 nM |  | 1147 µg/mL (≈ 3.16 mM) | 1147 (tosylate) μg/ml | Nc1ncnc2c1c(-c1cccc(O)c1)cn2C1CC(CN2CCCC2)C1 (centres unmarked) [Compound 2, 3-[4-Amino-7-(3-pyrrolidin-1-ylmethylcyclobutyl)-7H-pyrrolo[2,3-d]pyrimidin-5-yl]phenol]
930 nM | 5000 nM | 10 nM | 150 nM | 1330 µg/mL (≈ 3.99 mM) |  |  | NCC1CC(n2cc(-c3ccc4[nH]ccc4c3)c3c(N)ncnc32)C1 (centres unmarked) [Compound 3, 7-(3-Aminomethylcyclobutyl)-5-(1H-indol-5-yl)-7H-pyrrolo[2,3-d]pyrimidin-4-ylamine]
8400 nM | 29000 nM | 160 nM | 170 nM |  |  |  | NCC1CC(n2cc(-c3cc4ccccc4o3)c3c(N)ncnc32)C1 (centres unmarked) [Compound 37]
